Test results: patent US7109229B2, “Methods and compounds for treating proliferative diseases” (Eli Lilly and Company, priority 2000, dated 2006)
pIC50: −log10 of the molar value. Counter-ions that a name gives are not always drawn. Marks after values point to notes of the source that are not given here.

Tests used:
[1] = molecular target: T1, Cyclin D1-cdk4 (Homo sapiens, UniProt P11802); assay: Cyclin D1-cdk4 kinase activity with the ING peptide as substrate; format: biochemical; details: for pIC50: Table 1, ING peptide substrate, read-out: RbING IC50
T1 sequence (P11802 whole entry): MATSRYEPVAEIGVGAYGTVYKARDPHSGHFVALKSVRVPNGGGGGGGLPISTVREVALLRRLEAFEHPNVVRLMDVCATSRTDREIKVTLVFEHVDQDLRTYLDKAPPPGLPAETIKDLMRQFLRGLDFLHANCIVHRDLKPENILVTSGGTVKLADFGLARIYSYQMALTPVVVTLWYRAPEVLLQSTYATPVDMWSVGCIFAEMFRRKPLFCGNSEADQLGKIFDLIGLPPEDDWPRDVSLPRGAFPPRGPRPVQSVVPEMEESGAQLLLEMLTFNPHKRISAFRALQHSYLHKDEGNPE
T1 sequence (P24385 whole entry partner): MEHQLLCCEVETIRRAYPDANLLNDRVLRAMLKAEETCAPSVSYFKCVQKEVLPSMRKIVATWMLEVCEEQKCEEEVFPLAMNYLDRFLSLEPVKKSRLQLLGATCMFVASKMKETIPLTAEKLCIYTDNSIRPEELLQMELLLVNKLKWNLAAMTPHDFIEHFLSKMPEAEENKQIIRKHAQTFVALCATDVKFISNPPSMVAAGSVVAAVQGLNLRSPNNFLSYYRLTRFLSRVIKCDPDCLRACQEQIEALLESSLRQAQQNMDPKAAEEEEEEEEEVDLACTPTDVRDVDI
Procedure: The compounds of Formula I were tested using in vitro. An important in vitro test is the ability of the compound to inhibit the activity of the CDK4 enzyme. This test is done using Rb^ING and/or Rb^21 substrates as described in the literature (KONSTANTINIDIS, A. K., et al, J. Biol. Chem. 273, 26506–26515 (1998)). The test yields the micromolar concentration of the test compound, which produces a 50% inhibition of the CDK4 enzyme activity.
Assay of Cyclin D1-cdk4 Kinase Activity with the ING Peptide as Substrate.
The cyclin D1-cdk4 kinase activity of a compound was assayed by preparing a 100 ul reaction at the following concentrations: 35 mM Hepes pH 7.0, 10 mM MgCl2, 300 uM ATP, 200 uM ING peptide, 1.0 uCi of γ-^33P-ATP, 4.34 ug of cyclin D-cdk4 enzyme, 4% DMSO, and various concentrations of inhibitor. The reaction was incubated at room temperature (about 74° F.) for 60 minutes, and then terminated by the addition of 100 ul of 10% phosphoric acid. Next, the reaction was filtered through a Millipore Multiscreen-PH Plate—Catalog number MAPH NOB 10, and the plate was washed 2 times with 320 ul each of 0.5% phosphoric acid, followed by the addition of 100 ul of scintillation fluid and quantitation on a Packard Instruments, Top Count, scintillation counter.

[2] = molecular target: T1, Cyclin D1-cdk4; assay: Cyclin D1-cdk4 kinase activity with the Rb21 protein as substrate; format: biochemical; details: for pIC50: Table 1, Rb21 protein substrate, read-out: Rb21 IC50
Procedure: The compounds of Formula I were tested using in vitro. An important in vitro test is the ability of the compound to inhibit the activity of the CDK4 enzyme. This test is done using Rb^ING and/or Rb^21 substrates as described in the literature ([…]., et al, J. Biol. Chem. 273, 26506-26515 (1998)). […] The reaction was incubated at room temperature (about 74° F.) for 60 minutes, and then terminated by the addition of 100 ul of 25% trichloroacetic acid. Next, the reaction was filtered through a Millipore Multiscreen-FC Plate-Catalog number MAFC NOB 10, and the plate was washed 2 times with 320 ul each of 10% trichloroacetic acid, followed by the addition of 100 ul of scintillation fluid and quantitation on a Packard Instruments, Top Count, scintillation counter.

[3] = tested on: HCT116 cells; assay: Cell growth inhibition assay (MTT), HCT116; format: cell-based; details: Homo sapiens, HCT-116, 72 h drug exposure
Excerpt: (§1) A major in vitro test is the cell growth inhibition test. In this test, the concentration of the test compound that causes a 50% inhibition of cell growth for a selected cell line. A low value is desirable in this test. This test is done according to a standard protocol (SCHULTZ, R. M., et al, Oncology Res. 5, 223–228 (1993)). Another major in vitro test is the G1 arrest test. This test measures the proportion of the cells that are arrested in the G1 phase relative to control. A result above 1.5 is desirable in this test. […] The results are expressed as a percentage inhibition of ser-780 pRb phosphorylation in drug treated cells versus control cells treated with DMSO alone. […]

[4] = tested on: H460 cells; assay: Cell growth inhibition assay (MTT), H460; format: cell-based; details: Homo sapiens, NCI-H460, 72 h drug exposure
Excerpt: as §1

[5] = tested on: HCT116 cells; assay: G1 arrest test, cell cycle analysis using flow cytometry; format: cell-based, human; details: HCT116 cells after 24 h incubation period; at IC50 conc.
Excerpt: as §1

[6] = tested on: Ser-780 pRb phosphorylation in HCT116 cells; assay: Inhibition of Rb phosphorylation assay; format: cell-based, human; details: HCT116 cells after 24 h incubation period
Excerpt: as §1
Human HCT116 colon carcinoma cell line was purchased from American Tissue Culture Collection (Rockville, Md.) and maintained as monolayer in RPMI-1640 with L-Glutamine and 25 mM HEPES supplemented with 10% fetal bovine serum in a 37° C. incubator with a 10% CO2 atmosphere. […] Protein concentration was determined by the Bio-Rad DC protein assay (Bio-Rad, Hercules, Calif.). […]

[7] = tested on: protein kinase C; details: background, literature; cited from earlier work
[8] = tested on: protein kinase A; details: background, literature; cited from earlier work

SMILES | pIC50 [1] | pIC50 [2] | other results
COc1ccc2c(c1)[nH]c1c3ccc4ccn(C)c4c3c3c(c21)C(=O)NC3=O [Example 1, 11-Methoxy-5-methyl-5H,13H-indolo[6,7-a]pyrrolo[3,4-c]carbazole-6,8-dione] | 7.37 | 8.78 | IC50 ([1]; Table 2, Rb^ING substrate, read-out: CDK4 Inhibition (IC50/μM) Rb^ING): 0.04 µM; IC50 ([2]; Table 2, Rb^21 substrate, read-out: CDK4 Inhibition (IC50/μM) Rb^21): 0.001 µM; IC50 [3]: 1.8 µM; IC50 [4]: 1.09 µM; G1 Arrest; x vs control [5]: 2.6^c x vs control; % Inhibtion of Rb Phosphorylation in vitro @3XIC50 ([6]; compound at 3XIC50): 97%; % Inhibtion of Rb Phosphorylation in vitro @IC50 ([6]; compound at IC50): 90%
Cn1ccc2ccc3c4[nH]c5ccccc5c4c4c(c3c21)C(=O)NC4=O [Example 2, 5-Methyl-7H,13H-indolo[6,7-a]-pyrrolo[3,4-c]-carbazole-6,8-dione] | – | 7.67 | –
COc1ccc2c3c4c(c5c(ccc6ccn(C)c65)c3n(CCCO)c2c1)C(=O)NC4=O [Example 11, 13-(3-Hydroxy-propyl)-11-methoxy-5-methyl-5H,13H-indolo[6,7-a]pyrrolo[3,4-c]carbazole-6,8-dione] | – | 7.94 | –
COc1ccc2c3c4c(c5c(ccc6ccn(C)c65)c3n(CCN3CCC(C(N)=O)CC3)c2c1)C(=O)NC4=O [Example 36, 11-Methoxy-5-methyl-13-(1-ethyl-piperidine-4-carboxylic acid amide)-7H-indolo[6,7-a]pyrrolo[3,4-c]carbazole-6,8-dione] | 7.08 | 7.45 | –
COc1ccc2c3c4c(c5c(ccc6ccn(C)c65)c3n(CCCNCCN(C)C)c2c1)C(=O)NC4=O [Example 55, 11-Methoxy-5-methyl-13-(N,N-dimethyl-N′-propyl-ethane-1,2-diamine)-7H-indolo[6,7-a]pyrrolo[3,4-c]carbazole-6,8-dione] | 7.38 | 7.61 | –
COc1ccc2c3c4c(c5c(ccc6ccn(C)c65)c3n(CCCNCCN(C)C)c2c1)C(=O)NC4=O [Example 56, 11-Methoxy-5-methyl-13-(N,N-dimethyl-N′-propyl-ethane-1,2-diamine)-7H-indolo[6,7-a]pyrrolo[3,4-c]carbazole-6,8-dione dihydrochloride] | 7.00 | 7.75 | –
Cc1ccc2c(c1)[nH]c1c3ccc4ccn(C)c4c3c3c(c21)C(=O)NC3=O [Example 92, 11-Methyl-5-methyl-7H,13H-indolo[6,7-a]pyrrolo[3,4-c]6,8-dione] | – | – | melting point: 170 °C (dec.)
Cn1ccc2ccc3c4[nH]c5ccc(C(F)(F)F)cc5c4c4c(c3c21)C(=O)NC4=O [Example 94, 10-Trifluoromethyl-5-methyl-7H,13H-indolo[6,7-a]pyrrolo[3,4-c]6,8-dione] | – | – | melting point: 100 to 110 °C (dec.)
CN1CC[C@H](c2c(O)cc(O)c3c(=O)cc(-c4ccccc4Cl)oc23)[C@H](O)C1 [Flavopiridol] | – | – | concentration at which protein kinase C is inhibited [7]: ≥ 10 μM/L; concentration at which protein kinase A is inhibited [8]: ≥ 10 μM/L

More lines, main results first:

pIC50 [1] | pIC50 [2] | SMILES | other results
6.92 | 7.35 | COC(=O)[C@H](C)NCCCn1c2cc(OC)ccc2c2c3c(c4c(ccc5ccn(C)c54)c21)C(=O)NC3=O [Example 59, (S)-(+)-11-Methoxy-5-methyl-13-(2-propylamino-propionic acid methyl ester)-7H-indolo[6,7-a]pyrrolo[3,4-c]carbazole-6,8-dione] | –
7.65 | 7.96 | CN1CCN(CCc2cccc3c2[nH]c2c4ccc5ccn(C)c5c4c4c(c32)C(=O)NC4=O)CC1 [Example 68, 5-Methyl-12-(1-ethyl-4-methyl-piperazine)-7H,13H-indolo[6,7-a]pyrrolo[3,4-c]carbazole-6,8-dione] | –
7.12 | 7.46 | CN1CCN(CCCc2cccc3c2[nH]c2c4ccc5ccn(C)c5c4c4c(c32)C(=O)NC4=O)CC1 [Example 79, 12-(1-Methyl-4-propyl-piperazine)-5-methyl-7H,13H-indolo[6,7-a]pyrrolo[3,4-c]carbazole-6,8-dione] | –
7.11 | 7.96 | Cn1ccc2ccc3c4[nH]c5c(CCN6CCCCC6)cccc5c4c4c(c3c21)C(=O)NC4=O [Example 83, 5-Methyl-12-(2-ethylpiperidine)-7H,13H-indolo[6,7-a]pyrrolo[3,4-c]carbazole-6,8-dione] | –
